Three compounds from ChEMBL document CHEMBL1201862, “PubChem BioAssay data set” (2004) can be followed below.

The source made the active and inactive calls. A value given as a limit tells only on which side of the number the result lay.

By EC50 is commonly meant the concentration needed to bring the measured effect to its halfway point. The term AC50 denotes the midpoint of the concentration-response curve, whichever way the signal moves. By IC50 is commonly meant the midpoint of a concentration-inhibition curve.

The nature of experiment [1]: NIH3T3 cell viability loss – ATP luminescence, mouse fibroblasts, counter-screen, dose response (AID 2010).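 Also: cells exposed to compound for about 90 hours before reading.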 Format: functional, cell-based.
Another experiment addresses T1, CAAX prenyl protease 1 (Saccharomyces cerevisiae S288c, UniProt P47154).
T1 sequence (P47154 whole entry): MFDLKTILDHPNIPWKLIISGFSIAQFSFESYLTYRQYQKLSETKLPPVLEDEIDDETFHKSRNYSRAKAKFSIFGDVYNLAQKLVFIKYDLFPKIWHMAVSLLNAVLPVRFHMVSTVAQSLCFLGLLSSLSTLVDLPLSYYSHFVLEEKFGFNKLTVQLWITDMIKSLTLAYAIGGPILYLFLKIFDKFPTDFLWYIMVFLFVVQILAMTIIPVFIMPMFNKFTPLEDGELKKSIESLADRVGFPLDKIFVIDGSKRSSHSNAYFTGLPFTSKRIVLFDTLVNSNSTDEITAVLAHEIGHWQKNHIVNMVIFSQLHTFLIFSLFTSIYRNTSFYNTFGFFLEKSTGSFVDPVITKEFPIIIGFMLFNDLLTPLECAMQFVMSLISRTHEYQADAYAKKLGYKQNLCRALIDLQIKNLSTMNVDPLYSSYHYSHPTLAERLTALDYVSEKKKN
The experiment is described as follows: yeast CAAX protease Ste24 inhibition – biochemical, S. cerevisiae, plate reader, cherry-pick, dose response (AID 488815).

Experiment [2] in a line: fluconazole-exposed Candida albicans growth modulators – fluorescence, retest, confirmation (AID 2467). Format: functional, cell-based.
A short description of experiment [3]: viability of PTEN-deleted HCT116 cells – cell-based, HCT116 PTEN knockout, dose response (AID 1047).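 Also: HCT116 colon tumor cells with PTEN knocked out; cells exposed to compound for 60 hours before readout; potency for loss of cell viability measured by luminescence.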 Format: functional.
The nature of experiment [4]: Trypanosoma cruzi growth suppression in host cells – NIH3T3 host cells, beta-gal luminescence, confirmation (AID 2044).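 Also: intracellular parasites grown in NIH/3T3 mouse fibroblasts as host cells; luminescent beta-galactosidase reporter signal from transgenic T. cruzi replicating inside host cells; inhibitors lower the luminescence signal.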 Type of experiment: functional, cell-based.
Experiment [5] can be described thus: NIH-3T3 fibroblast cytotoxicity, dose response, cytotoxicity control, cell-based, fluorescence, Alamar Blue, secondary assay (AID 2327).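 Also: NIH-3T3 mouse fibroblasts cultured with fluconazole at 8 µg/mL.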 Type of experiment: functional. For orientation: Alamar Blue is a resazurin reagent that responds to reducing activity.
Experiment [6] addresses T2, DNA repair and recombination protein RAD54-like (Homo sapiens, UniProt Q92698).
T2 sequence (Q92698 whole entry): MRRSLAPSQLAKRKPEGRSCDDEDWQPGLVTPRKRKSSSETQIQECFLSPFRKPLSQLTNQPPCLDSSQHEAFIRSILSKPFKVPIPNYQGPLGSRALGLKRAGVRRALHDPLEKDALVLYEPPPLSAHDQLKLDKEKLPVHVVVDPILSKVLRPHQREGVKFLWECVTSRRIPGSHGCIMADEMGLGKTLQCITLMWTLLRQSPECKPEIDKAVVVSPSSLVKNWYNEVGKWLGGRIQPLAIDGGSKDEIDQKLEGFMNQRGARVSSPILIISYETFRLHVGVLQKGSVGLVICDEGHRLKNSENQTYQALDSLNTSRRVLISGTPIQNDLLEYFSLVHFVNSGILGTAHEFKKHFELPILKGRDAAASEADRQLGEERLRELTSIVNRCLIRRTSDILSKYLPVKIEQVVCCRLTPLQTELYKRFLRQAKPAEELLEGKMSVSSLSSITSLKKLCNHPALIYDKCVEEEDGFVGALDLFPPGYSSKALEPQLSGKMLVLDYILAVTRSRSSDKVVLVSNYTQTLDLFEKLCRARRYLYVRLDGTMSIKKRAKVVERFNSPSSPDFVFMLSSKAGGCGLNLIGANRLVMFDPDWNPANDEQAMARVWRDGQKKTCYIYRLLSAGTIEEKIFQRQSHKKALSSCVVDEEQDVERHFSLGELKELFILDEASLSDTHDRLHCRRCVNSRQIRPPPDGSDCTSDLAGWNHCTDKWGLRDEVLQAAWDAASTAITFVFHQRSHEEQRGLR
The experiment is described as follows: RAD54 Holliday junction migration blockers – biochemical, fluorescence, cherry-picked samples, dose series, confirmation (AID 651657). Type of experiment: functional.

Experiment [7] can be described thus: viability of HCT116 lacking mutant beta-catenin – cell-based, human colon tumor, dose response (AID 1045).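 Also: HCT116 colon tumor cells with beta catenin knocked out; cells exposed to compound for 60 hours.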 Type of experiment: functional.
The next experiment has as its target T3, Exodeoxyribonuclease V (Escherichia coli (strain K12), UniProt P04993+P07648+P08394).
T3 sequence (P04993 whole entry): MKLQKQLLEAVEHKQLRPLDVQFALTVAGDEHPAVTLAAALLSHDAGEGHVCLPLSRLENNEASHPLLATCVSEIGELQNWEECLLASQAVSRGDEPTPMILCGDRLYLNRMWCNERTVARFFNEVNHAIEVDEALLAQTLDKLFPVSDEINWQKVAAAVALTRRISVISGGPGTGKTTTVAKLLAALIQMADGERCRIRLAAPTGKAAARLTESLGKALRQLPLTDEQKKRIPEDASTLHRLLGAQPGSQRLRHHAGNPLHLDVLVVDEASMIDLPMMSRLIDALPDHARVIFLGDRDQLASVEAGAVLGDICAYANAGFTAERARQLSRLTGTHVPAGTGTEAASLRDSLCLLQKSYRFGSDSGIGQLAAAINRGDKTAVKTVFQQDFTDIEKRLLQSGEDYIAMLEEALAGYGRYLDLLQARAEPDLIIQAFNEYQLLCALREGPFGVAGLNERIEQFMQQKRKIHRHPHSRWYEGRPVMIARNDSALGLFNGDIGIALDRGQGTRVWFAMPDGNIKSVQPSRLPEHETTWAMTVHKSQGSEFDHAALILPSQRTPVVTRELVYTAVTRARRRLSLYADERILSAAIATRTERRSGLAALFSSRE
T3 sequence (P07648 whole entry): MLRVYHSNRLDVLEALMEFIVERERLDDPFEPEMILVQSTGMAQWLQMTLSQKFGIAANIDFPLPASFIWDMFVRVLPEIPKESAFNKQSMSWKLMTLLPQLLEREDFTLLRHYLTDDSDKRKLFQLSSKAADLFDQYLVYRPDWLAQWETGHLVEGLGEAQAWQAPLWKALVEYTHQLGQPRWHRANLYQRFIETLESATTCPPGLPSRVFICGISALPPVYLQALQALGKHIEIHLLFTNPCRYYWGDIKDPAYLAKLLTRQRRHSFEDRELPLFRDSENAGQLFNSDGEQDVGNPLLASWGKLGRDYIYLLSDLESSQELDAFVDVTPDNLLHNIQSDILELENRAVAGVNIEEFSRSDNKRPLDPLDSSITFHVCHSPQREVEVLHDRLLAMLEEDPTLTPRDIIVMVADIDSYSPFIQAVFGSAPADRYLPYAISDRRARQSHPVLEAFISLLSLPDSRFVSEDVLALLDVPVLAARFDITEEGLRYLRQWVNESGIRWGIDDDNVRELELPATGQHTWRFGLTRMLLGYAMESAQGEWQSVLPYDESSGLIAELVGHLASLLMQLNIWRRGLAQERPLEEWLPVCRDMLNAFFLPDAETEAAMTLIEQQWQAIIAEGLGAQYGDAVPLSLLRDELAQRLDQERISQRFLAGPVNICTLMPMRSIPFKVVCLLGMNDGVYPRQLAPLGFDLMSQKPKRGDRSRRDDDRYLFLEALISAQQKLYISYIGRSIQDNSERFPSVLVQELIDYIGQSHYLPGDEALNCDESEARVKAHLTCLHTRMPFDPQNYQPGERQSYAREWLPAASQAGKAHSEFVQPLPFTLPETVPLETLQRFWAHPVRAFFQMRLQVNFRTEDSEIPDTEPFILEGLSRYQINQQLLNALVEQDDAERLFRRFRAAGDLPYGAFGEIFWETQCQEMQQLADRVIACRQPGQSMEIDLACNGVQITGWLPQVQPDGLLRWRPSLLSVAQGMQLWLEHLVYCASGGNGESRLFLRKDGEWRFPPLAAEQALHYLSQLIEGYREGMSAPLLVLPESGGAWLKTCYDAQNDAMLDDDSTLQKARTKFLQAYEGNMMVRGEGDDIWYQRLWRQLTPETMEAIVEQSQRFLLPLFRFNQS
T3 sequence (P08394 whole entry): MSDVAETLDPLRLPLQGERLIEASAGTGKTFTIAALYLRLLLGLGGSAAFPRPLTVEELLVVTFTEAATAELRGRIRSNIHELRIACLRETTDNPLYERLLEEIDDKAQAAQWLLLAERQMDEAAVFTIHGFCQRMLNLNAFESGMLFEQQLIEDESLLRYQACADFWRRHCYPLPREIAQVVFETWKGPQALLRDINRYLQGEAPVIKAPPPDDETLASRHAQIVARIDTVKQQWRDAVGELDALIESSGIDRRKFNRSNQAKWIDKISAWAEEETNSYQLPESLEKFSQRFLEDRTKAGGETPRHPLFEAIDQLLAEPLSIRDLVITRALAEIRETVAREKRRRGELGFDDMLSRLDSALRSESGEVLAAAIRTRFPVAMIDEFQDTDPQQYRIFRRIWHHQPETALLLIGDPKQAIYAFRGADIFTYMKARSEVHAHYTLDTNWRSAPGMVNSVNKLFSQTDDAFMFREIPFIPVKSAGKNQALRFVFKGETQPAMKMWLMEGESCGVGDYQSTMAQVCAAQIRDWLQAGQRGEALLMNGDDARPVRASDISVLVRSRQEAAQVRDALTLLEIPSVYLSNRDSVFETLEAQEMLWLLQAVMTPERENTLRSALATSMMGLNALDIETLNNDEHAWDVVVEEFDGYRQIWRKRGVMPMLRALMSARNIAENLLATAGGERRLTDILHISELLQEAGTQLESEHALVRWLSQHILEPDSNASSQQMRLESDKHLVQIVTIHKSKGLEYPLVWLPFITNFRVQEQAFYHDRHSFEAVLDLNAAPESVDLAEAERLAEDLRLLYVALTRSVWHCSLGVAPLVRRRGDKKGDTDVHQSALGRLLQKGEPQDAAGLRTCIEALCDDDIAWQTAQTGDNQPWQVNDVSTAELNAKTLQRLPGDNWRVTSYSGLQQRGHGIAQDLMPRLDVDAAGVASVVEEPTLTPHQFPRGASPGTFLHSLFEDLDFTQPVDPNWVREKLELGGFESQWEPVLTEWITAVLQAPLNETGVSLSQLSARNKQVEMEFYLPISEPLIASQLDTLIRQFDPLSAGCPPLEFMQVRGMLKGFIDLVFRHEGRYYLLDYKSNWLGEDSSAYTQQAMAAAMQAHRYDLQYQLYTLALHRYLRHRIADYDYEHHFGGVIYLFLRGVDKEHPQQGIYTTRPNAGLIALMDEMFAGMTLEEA
As to the kind of experiment: RecBCD inhibition via phage-restricted bacterial growth – absorbance, V66 E. coli, mutant T4 phage, counter-screen for AddAB inhibitor project, dose response (AID 492957). Format: functional, cell-based, Escherichia coli str. K-12 substr. MG1655.

Experiment [8] can be described thus: Counterscreen for AddAB inhibitors: absorbance-based bacterial cell-based high throughput dose response assay for inhibitors of bacterial viability. [Related pubchem assays (depositor defined):AID435030, AID449728, AID449731, AID488942, AID488955, AID488956]. Format: functional. (The purpose of a counterscreen is to sort out artefacts and off-target activity.)

A short description of experiment [9]: cells. Format: functional, cell-based.
Experiment [10] in a line: cells. Format: functional, cell-based. This is another data set of the same source.
A short description of experiment [11]: reduction of Shn3 3'UTR-driven luciferase in osteoblasts – cell-based, Clone20 osteoblasts, firefly luciferase, cherry-picked, dose response (AID 624132).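 Also: firefly luciferase luminescence from reporter carrying the Shn3 3'UTR in osteoblasts.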 Type of experiment: functional.
Experiment [12] addresses Heat shock protein HSP 90-alpha (Homo sapiens, UniProt P07900). Type of experiment: functional, organism-based.
The subject of another experiment is INS1. As to the kind of experiment: INS-1E survival protection against cytokine death – cell-based, luminescence, retest, dose response (AID 449756).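 Also: cell death triggered by IL-1 beta plus TNF-alpha plus IFN-gamma mixture; protective hits raise ATP signal compared with cytokine alone wells.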 Type of experiment: functional. To be noted: Rattus norvegicus.
Another experiment has as its system HEK293. As to the kind of experiment: EBV LMP1 TES2 canonical NF-kB signalling blockers – cell-based, HEK293, luciferase, cherry-pick, dose response (AID 588343). The following applies: Homo sapiens. Type of experiment: functional.
The nature of experiment [13]: loss of viability in HepG2 cells – cell-based, CellTiter-Glo, cherry-picked, cytotoxicity control for Shn3 inhibitor project, dose response (AID 624134). Type of experiment: functional. A general note: In ATP-based viability assays light output follows the ATP content of the culture.
The nature of experiment [14]: non-specific 3'UTR reporter inhibition in Clone20-Shn3RL – cell-based, Renilla luciferase, cherry-picked, counter-screen for Shn3 inhibitor project, dose response (AID 624133). Format: functional.

For the compound `CCc1nc(Nc2ccncc2)c2oc3ccccc3c2n1`, the concentration for a half-maximal effect (EC50) in experiment [1] is > 60 µM (not active); in [2], 2.48 µM (active); in [3], 6.58 µM (active); in experiment [4] it was 0.6 µM (active); in experiment [5], > 160 µM (inactive); in experiment [7] it was 6.45 µM (active). In addition, the concentration at half-maximal activity (AC50) at CAAX prenyl protease 1 is 5.23 µM (active); in experiment [6], 15.5 µM (active).

For the compound `COc1ccccc1/C=C1\SC(=S)N(CCC(=O)NNC(=O)c2ccccc2O)C1=O`, the IC50 (on Exodeoxyribonuclease V; in experiment [8]) was > 119 µM (inactive) throughout.

In the case of `CCC(=O)NC(c1ccc(Cl)cc1Cl)c1ccc2cccnc2c1O` (centres undefined), the half-maximal effective concentration (EC50) in experiment [1] is 0.434 µM (active); in the experiment “cells [9]” it was 7.3 µM (active); in the experiment “cells [10]” it was > 350 µM (not active); in experiment [2], 0.354 µM (active); in experiment [4], 0.296 µM (active); in experiment [5] it was 3.86 µM (inconclusive). Further, the AC50 in experiment [11] is 1.19 µM (active); in experiment [12], 3.22 µM (active); in the experiment on INS1, 0.478 µM (active); in the experiment with HEK293, 4.55 µM (active); in experiment [13], 28.8 µM (active); in experiment [14], 1.33 µM (active). Further, the IC50 (at Exodeoxyribonuclease V; in experiment [8]) was > 119 µM (inactive) each time.
